In patent US20250051263A1, “NOVEL IONIZABLE LIPIDS AND LIPID NANOPARTICLES AND METHODS OF USING THE SAME” (Sail Biomedicines, Inc., priority 2021, published 2025):
“And” between values parts separate entries of the source, which are not always exact repeats. Equal values may be shown once.

Legend:
[1] = mRNA encapsulation efficiency, Quant-iT RiboGreen RNA Assay; format: physicochemical
[2] = test system: Balb/c mice; test: EPO levels in plasma by EPO MSD kit after IV injection of EPO mRNA LNP; format: in vivo
Experimental: 8-9 week old female Balb/c mice are utilized for bioluminescence-based ionizable lipid screening efforts. Mice are obtained from Jackson Laboratories (JAX Stock: 000651) and allowed to acclimate for one week prior to manipulations. Animals are placed under a heat lamp for a few minutes before introducing them to a restraining chamber. The tail is wiped with alcohol pads (Fisher Scientific) and 100 μL of a lipid nanoparticle composition descrbed above containing 10 ug total mRNA (5 ug Fluc+5 ug EPO) is injected intravenously using a 29 G insulin syringe (Covidien). Any resulting bleeding is stemmed using a sterile gauze pad (Fisher Scientific) and animals are placed back into their home cage. 4-6 hours post-dose, animals are injected with 200 μL of 15 mg/mL D-Luciferin (GoldBio) and placed in an isoflurane induction chamber set to deliver 2.5% isoflurane delivered at an oxygen flow rate of 1-2 liters per min. After 5 minutes of isoflurane exposure, mice are placed in set nose cones inside the IVIS Lumina LT imager (PerkinElmer). LivingImage software is utilized for imaging. Whole body bio-luminescence is captured at auto-exposure after which animals are removed from the IVIS and placed into a CO2 chamber for euthanasia. Cardiac puncture is performed on each animal after placing it in dorsal recumbency, and blood collection is performed using a 25 G insulin syringe (BD). Blood is collected in Lithium-Heparin coated tubes (Fisher Scientific) and immediately placed on ice. Once all blood samples are collected, tubes are spun at 2000 G for 10 minutes using a tabletop centrifuge and plasma is aliquoted into individual Eppendorf tubes (Fisher Scientific) and stored at −80 C for subsequent EPO quantification. EPO levels in plasma are determined using EPO MSD kit (Meso Scale Diagnostics).
8-9 week old female Balb/c mice were utilized for bioluminescence-based ionizable lipid screening efforts. Mice were obtained from Jackson Laboratories (JAX Stock: 000651) and allowed to acclimate for one week prior to manipulations. Animals were placed under a heat lamp for a few minutes before introducing them to a restraining chamber. The tail was wiped with alcohol pads (Fisher Scientific) and, for each LNP composition descrbed above, 100 μL of a lipid nanoparticle composition descrbed above containing 10 μg total mRNA (5 μg Fluc+5 μg EPO, 5 μg Fluc+5 μg Cre, or 5 μg EGFP) was injected intravenously using a 29 G insulin syringe (Covidien).
4-6 hours post-dose, animals were injected with 200 μL of 15 mg/mL D-Luciferin (GoldBio), and placed in set nose cones inside the IVIS Lumina LT imager (PerkinElmer). LivingImage software was utilized for imaging. Whole body bio-luminescence was captured at auto-exposure after which animals are removed from the IVIS and placed into a CO2 chamber for euthanasia. Cardiac puncture was performed on each animal after placing it in dorsal recumbency, and blood collection was performed using a 25 G insulin syringe (BD). Once all blood samples were collected, tubes are spun at 2000 G for 10 minutes using a tabletop centrifuge and plasma was aliquoted into individual Eppendorf tubes (Fisher Scientific) and stored at −80° C. for subsequent EPO quantification. EPO levels in plasma were determined using EPO MSD kit (Meso Scale Diagnostics).

[3] = test system: Balb/c mice; test: In-vivo bioluminescent imaging after IV injection of Fluc mRNA LNP; details: for Bioluminescence (IV) Liver / Bioluminescence (IV) Lung / Bioluminescence (IV) Spleen / Bioluminescence (IV) Whole Body / Spleen: Liver Ratio: Example 5 LNP (DOPE 35:16:46.5:2.5), 5 μg FLUC + 5 μg EPO; for Bioluminescence (IV) Liver / Bioluminescence (IV) Lung / Bioluminescence (IV) Spleen / Bioluminescence (IV) Whole Body / Bioluminescence Liver / Bioluminescence Lung / Bioluminescence Spleen: 4-6 hours post-dose; for Bioluminescence (IV) Liver / Bioluminescence (IV) Lung / Bioluminescence (IV) Spleen / Bioluminescence (IV) Whole Body / Spleen: Liver Ratio / Bioluminescence Liver / Bioluminescence Lung / Bioluminescence Spleen: IV; for Spleen: Liver Ratio: ratio of bioluminescence; for Bioluminescence Liver / Bioluminescence Lung / Bioluminescence Spleen: 5 ug Fluc+5 ug EPO mRNA; for bioluminescence in the liver, spleen, and lung: used as part of an ionizable lipid scaffold (LNP), Table 1
[4] = mRNA encapsulation efficiency, Quant-iT RiboGreen RNA Assay; format: physicochemical; details: LNP ionizable lipid:DSPC:Plant Chol.:DMPE-PEG2k 50:10:38.5:1.5
[5] = Example 5 LNP lipid:DOPE:Plant Cholesterol:DMPE-PEG2k 35:16:46.5:2.5, FLUC/EPO 1:1 mRNA, N:P 6:1
[6] = LNP ionizable lipid:DOPE:Plant Chol.:DMPE-PEG2k 35:16:46.5:2.5 (Table 1)
[7] = Example 5 LNP (DOPE 35:16:46.5:2.5), 5 μg FLUC + 5 μg EPO
[8] = LNP lipid:DOPE:Plant Chol.:DMPE-PEG2k 35:16:46.5:2.5 (Table 1), 5 ug Fluc+5 ug EPO mRNA
[9] = LNP lipid:DSPC:Plant Chol.:DMPE-PEG2k 50:10:38.5:1.5, 5 ug Fluc+5 ug EPO mRNA
[10] = LNP lipid:DOPE:Plant Chol.:DMPE-PEG2k 35:16:46.5:2.5 (Table 1)
[11] = LNP lipid:DSPC:Plant Chol.:DMPE-PEG2k 50:10:38.5:1.5

Row | SMILES | % EE [1, 5] | % EE [1, 6] | hEPO [2, 7] | hEPO [2, 8] | hEPO [2, 9] | Bioluminescence (IV) Liver [3] | Bioluminescence (IV) Lung [3] | Bioluminescence (IV) Spleen [3] | Bioluminescence (IV) Whole Body [3] | Spleen: Liver Ratio [3] | Bioluminescence Liver [3, 10] | Bioluminescence Lung [3, 10] | Bioluminescence Spleen [3, 10] | Bioluminescence Liver [3, 11] | Bioluminescence Lung [3, 11] | Bioluminescence Spleen [3, 11] | bioluminescence in the liver, spleen, and lung [3] | % EE [4]
1 | CCCCCCCCCCCOC(=O)CCCCCN(CCCCCCCC(=O)OC(CCCCCCCC)CCCCCCCC)CCNC(=O)/C=C/C(=O)NCCN(CCCCCCCC(=O)OC(CCCCCCCC)CCCCCCCC)CCCCCC(=O)OCCCCCCCCCCC [Compound 2252, 1-octylnonyl 8-[2-[[(E)-4-[2-[[8-(1-octylnonoxy)-8-oxo-octyl]-(6-oxo-6-undecoxy-hexyl)amino]ethylamino]-4-oxo-but-2enoyl]amino]ethyl-(6-oxo-6-undecoxy-hexyl)amino]octanoate] | 94.5% | 94.5% | 5.6E+05 | 5.62E+05 | 2.03E+04 | 1.5E+07 | 3.3E+03 | 2.3E+05 | 7.2E+07 | 0.015 | 1.52E+07 | 3.27E+03 | 2.32E+05 | 2.41E+05 | 1.03E+04 | 4.69E+05 | improved bioluminescence | 70.4%
2 | CCCCCCCCCCCOC(=O)CCCCCN(CCCCCCCC(=O)OC(CCCCCCCC)CCCCCCCC)CCNC(=O)CC(=O)NCCN(CCCCCCCC(=O)OC(CCCCCCCC)CCCCCCCC)CCCCCC(=O)OCCCCCCCCCCC [Compound 2220, 1-octylnonyl 8-[2-[[3-[2-[[8-(1-octylnonoxy)-8-oxo-octyl]-(6-oxo-6-undecoxy-hexyl)amino]ethylamino]-3-oxo-propanoyl]amino]ethyl-(6-oxo-6-undecoxy-hexyl)amino]octanoate] | 94.4% | – | 7.1E+05 | – | 6.99E+05 | 1.1E+07 | 1.8E+03 | 7.5E+04 | 4.3E+07 | 0.004 | – | – | – | 1.03E+07 | 7.79E+03 | 2.09E+06 | improved bioluminescence | 91%
3 | C=C(CN(CCCCCCCC(=O)OC(CCCCCCCC)CCCCCCCC)CCCCCC(=O)OCCCCCCCCCCC)CN(CCCCCCCC(=O)OC(CCCCCCCC)CCCCCCCC)CCCCCC(=O)OCCCCCCCCCCC [Compound 2253, 1-octylnonyl 8-[2-[[[8-(1-octylnonoxy)-8-oxo-octyl]-(6-oxo-6-undecoxy-hexyl)amino]methyl]allyl-(6-oxo-6-undecoxy-hexyl)amino]octanoate] | 82.7% | 82.7% | 8.9E+01 | 8.89E+01 | 8.89E+01 | 1.3E+03 | 7.2E+02 | 1.2E+03 | 3.8E+03 | 0.937 | 1.33E+03 | 7.18E+02 | 1.24E+03 | 1.30E+03 | 6.16E+02 | 9.98E+02 | improved bioluminescence | 27.3%
4 | CCCCCCCCCCCOC(=O)CCCCCN(CCCCCCCC(=O)OC(CCCCCCCC)CCCCCCCC)CCOC(=O)OCCN(CCCCCCCC(=O)OC(CCCCCCCC)CCCCCCCC)CCCCCC(=O)OCCCCCCCCCCC [Compound 2218, 1-octylnonyl 8-[2-[2-[[8-(1-octylnonoxy)-8-oxo-octyl]-(6-oxo-6-undecoxy-hexyl)amino]ethoxycarbonyloxy]ethyl-(6-oxo-6-undecoxy-hexyl)amino]octanoate] | 91.7% | 94.4% and 91.7% | 9.6E+01 | – | 8.40E+01 | 1.9E+03 | 7.9E+02 | 1.8E+03 | 4.1E+03 | 1.019 | – | – | – | 1.16E+03 | 7.20E+02 | 8.14E+03 | improved bioluminescence | 86.5%
5 | CCCCCCCCCCCC(=O)OCCCCCN(CCCCCCCC(=O)OC(CCCCCCCC)CCCCCCCC)CCNC(=O)CCC(=O)NCCN(CCCCCCCC(=O)OC(CCCCCCCC)CCCCCCCC)CCCCCOC(=O)CCCCCCCCCCC [Compound 2354, 5-[2-[[4-[2-[5-dodecanoyloxypentyl-[8-(1-octylnonoxy)-8-oxo-octyl]amino]ethylamino]-4-oxo-butanoyl]amino]ethyl-[8-(1-octylnonoxy)-8-oxo-octyl]amino] pentyl dodecanoate] | 94.6% | – | 1.4E+06 | – | – | 5.6E+06 | 6.2E+03 | 7.3E+05 | 4.5E+07 | 0.131 | – | – | – | – | – | – | – | –
